pIC50: −log10 of the molar value.
Experiments:
[1] = partition coefficient between octanol and water; cited from earlier work
[2] = system: primary rat cortical neurons; assay: Live and Dead cell staining of primary neuronal cultures; type: cell-based; conditions: 24 h
[3] = system: human neuroblastoma SK-N-SH cells; assay: MTT assay of cell viability in SK-N-SH neuroblastoma cells; type: cell-based
rat = conditions: ref Hazardous Substances Data Bank (HSDB); cited from earlier work
primary cultured cells = conditions: cited from earlier work

Row | SMILES | log Pow [1] | Survival of primary cultured neurons ([2]; 0.5 mM) | pIC50 ([3]; Homo sapiens, SK-N-SH, 24 h) | LD50 rat (intraperitoneal) (rat) | Survival of primary cultured neurons ([2]; 1 mM) | Concentration causing the death of all primary cultured cells (primary cultured cells) | pIC50 ([3]; SK-N-SH cells, MTT assay, 24 h exposure)
1 | CCCCC(CC)CO (centres unmarked) [2-Ethyl-1-hexanol] | 2.73 | almost all of the primary cultured neurons died | 4.82 | 500 mg/kg |  |  | 
2 | C=CC(C)(O)CCC=C(C)C (centres unmarked) [Linalool] |  |  | 2.88 | 307 mg/kg | almost all of the cells in culture dishes died |  | 
3 | CCCCCCCCC=O [Nonanal] | 3.27 | almost all of the primary cultured neurons died | 5.08 |  |  |  | 
4 | OCCc1ccccc1 [Phenethyl alcohol] |  |  | 2.62 |  | almost all of the cells in culture dishes survived |  | 
5 | Cc1ccccc1 [Toluene, reference compound] |  |  | 3.07 | 1332 mg/kg |  | 2000 µM | 
6 | CC/C=C\CCO [cis-3-Hexen-1-ol] |  |  | 2.64 |  | almost all of the cells in culture dishes died |  | 
7 | CCCCCCCC=O [n-Octanal] | 2.78 | almost all of the primary cultured neurons died | 4.43 |  |  |  | 
8 | CCCO [n-Propyl alcohol] |  |  |  | 164 mg/kg | almost all of the cells in culture dishes survived |  | < 2.30

Source: PMC5598150 (Toxicology Reports, 2015)
